Measurements as given in US8604021B2, “Substituted arylamine compounds and methods of treatment” (priority 2005, dated 2013).
Counter-ions that a name gives are not always drawn. Like-named read-outs stand apart in the source and are kept apart here. Values belong to the molecule of their own block, whether it stands above or below them.

What was measured:
5-HT6 receptor = 5-HT6 receptor (Homo sapiens, UniProt P50406); test: 5-HT6 receptor binding
[1] = Food intake, body weight and plasma biomarkers in DIO (diet-induced obese) rats; format: in vivo; conditions: DIO rats, 3, 10 mg/kg bid, two weeks
5HT1A = target: T1, 5HT1A (Homo sapiens, UniProt P08908); test: Compound Binding Profiles: 5HT1A; conditions: read-out: 5HT1A binding class
T1 sequence (P08908 1-422): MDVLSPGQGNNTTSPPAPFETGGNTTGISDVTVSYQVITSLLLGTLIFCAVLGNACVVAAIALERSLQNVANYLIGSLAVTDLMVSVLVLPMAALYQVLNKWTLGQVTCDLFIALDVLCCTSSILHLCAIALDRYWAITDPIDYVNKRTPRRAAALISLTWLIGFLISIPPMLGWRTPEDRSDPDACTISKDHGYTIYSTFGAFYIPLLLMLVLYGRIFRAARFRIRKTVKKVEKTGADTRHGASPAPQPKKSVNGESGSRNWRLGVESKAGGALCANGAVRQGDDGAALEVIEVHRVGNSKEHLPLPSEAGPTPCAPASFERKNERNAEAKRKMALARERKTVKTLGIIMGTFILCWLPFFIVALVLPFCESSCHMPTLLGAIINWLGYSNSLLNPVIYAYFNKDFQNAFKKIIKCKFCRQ

D2 = D2 (Homo sapiens, UniProt P14416); test: Compound Binding Profiles: D2; conditions: * = Estimated IC50
5HT2A = 5HT2A (Homo sapiens, UniProt P28223); test: Compound Binding Profiles: 5HT2A
M1 = target: T2, M1 (Homo sapiens, UniProt P11229); test: Compound Binding Profiles: M1
T2 sequence (P11229 1-460): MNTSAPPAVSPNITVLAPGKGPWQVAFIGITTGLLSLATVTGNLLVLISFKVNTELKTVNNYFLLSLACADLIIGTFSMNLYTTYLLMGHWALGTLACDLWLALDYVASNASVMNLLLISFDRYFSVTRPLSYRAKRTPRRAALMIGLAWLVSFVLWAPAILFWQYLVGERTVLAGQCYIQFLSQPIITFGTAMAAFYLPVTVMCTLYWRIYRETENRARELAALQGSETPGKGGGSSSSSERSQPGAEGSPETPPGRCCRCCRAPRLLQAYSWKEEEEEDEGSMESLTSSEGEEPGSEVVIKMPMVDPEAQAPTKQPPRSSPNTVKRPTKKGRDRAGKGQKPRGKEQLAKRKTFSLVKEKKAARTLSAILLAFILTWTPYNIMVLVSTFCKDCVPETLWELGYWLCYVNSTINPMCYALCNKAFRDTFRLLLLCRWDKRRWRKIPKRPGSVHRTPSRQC

α2 = test: Compound Binding Profiles: α2
D3 = D3 (Homo sapiens, UniProt P35462); test: Compound Binding Profiles: D3
D1 = D1 (Homo sapiens, UniProt P21728); test: Compound Binding Profiles: D1; conditions: read-out: D1 binding class
α1 = test: Compound Binding Profiles: α1
D4 = target: T3, D4 (Homo sapiens, UniProt P21917); test: Compound Binding Profiles: D4; conditions: read-out: D4 binding class
T3 sequence (P21917 1-419): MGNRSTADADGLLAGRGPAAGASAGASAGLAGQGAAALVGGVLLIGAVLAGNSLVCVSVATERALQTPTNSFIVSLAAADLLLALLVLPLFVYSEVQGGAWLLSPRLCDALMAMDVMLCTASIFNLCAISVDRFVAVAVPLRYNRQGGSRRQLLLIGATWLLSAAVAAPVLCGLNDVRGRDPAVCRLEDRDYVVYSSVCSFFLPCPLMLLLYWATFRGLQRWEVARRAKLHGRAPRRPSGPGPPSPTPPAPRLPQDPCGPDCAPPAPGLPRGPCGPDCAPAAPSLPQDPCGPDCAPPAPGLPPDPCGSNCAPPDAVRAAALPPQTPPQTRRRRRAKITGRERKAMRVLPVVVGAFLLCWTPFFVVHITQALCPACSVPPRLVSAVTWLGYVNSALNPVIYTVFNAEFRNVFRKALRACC

H1 = H1 (Homo sapiens, UniProt P35367); test: Compound Binding Profiles: H1; conditions: * = Estimated IC50
5HT2C = target: T4, 5HT2C (Homo sapiens, UniProt P28335); test: Compound Binding Profiles: 5HT2C
T4 sequence (P28335 33-458): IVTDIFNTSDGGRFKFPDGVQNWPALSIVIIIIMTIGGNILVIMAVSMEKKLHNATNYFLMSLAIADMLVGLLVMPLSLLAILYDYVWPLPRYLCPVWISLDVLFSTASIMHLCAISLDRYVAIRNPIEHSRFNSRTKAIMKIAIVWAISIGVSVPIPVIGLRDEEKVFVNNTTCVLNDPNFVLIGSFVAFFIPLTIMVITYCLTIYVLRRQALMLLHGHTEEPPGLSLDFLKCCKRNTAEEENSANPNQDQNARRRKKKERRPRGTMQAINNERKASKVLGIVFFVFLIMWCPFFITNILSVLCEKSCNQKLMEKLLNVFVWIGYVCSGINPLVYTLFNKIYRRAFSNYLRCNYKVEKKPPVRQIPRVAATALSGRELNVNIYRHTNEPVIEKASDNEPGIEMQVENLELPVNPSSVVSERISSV

[2] = Novel object recognition test; format: in vivo, C57Bl/6J mice; conditions: for effect on recognition index / object recognition compared to vehicle: 0.1 mg/kg i.p
Text: Male C57Bl/6J mice from Jackson Laboratories (Bar Harbor, Me.) were used. Mice were received at 6-weeks of age. Upon receipt, mice were assigned unique identification numbers (tail marked) and were group housed in polycarbonate cages with filter tops. All animals remained housed in groups of four during the remainder of the study. All mice were acclimated to the colony room for at least two weeks prior to testing and were subsequently tested at an average age of 8 weeks of age. During the period of acclimation, mice were examined on a regular basis, handled, and weighed to assure adequate health and suitability. Mice were maintained on a 12/12 light/dark cycle with the light on at 6:00 a.m. The room temperature was maintained between 20 and 23° C. with a relative humidity maintained between 30% and 70%. Chow and water were provided ad libitum for the duration of the study. In each test, animals were randomly assigned across treatment groups.
The pH at the 10 mg/kg was around 5.5.
Rolipram, also dissolved in 10% DMSO was only administered 20 min prior to training on Day 2.
On Day 1, mice were habituated to a circular open field environment (d=18 in, h=15 cm) for one hour in cage groups of four. Each Arena was constructed out of acrylic that was painted black to block reflection. On day 2, mice were placed back into the same arena for a training trial and allowed to explore a set of two identical objects placed equidistance apart from both each other and the arena walls. Individual mice were trained for a total of 15 minutes and then placed back into their home cages. On Day 3, mice were placed back into the same arena in the presence of both the familiar (previously explored) and a novel object. The spatial positions of the familiar and novel object (i.e. left-right sides) were counterbalanced between subjects. The difference in time spent exploring each object during the test trial was used as an index of object recognition and memory retention. Each animals test trial was recorded and these tapes were observed and scored after test completion. The first 10 min of each session was scored and object recognition was computed using the formula: (Time spent with novel object*100)/(Total Time exploring both objects). Tissue Harvest
Data were analyzed by analysis of variance (ANOVA) followed by post-hoc comparisons with Fisher Tests when appropriate. An effect was considered significant if p<0.05. Data are represented as the mean and standard error to the mean.

[3] = * = Estimated IC50, hydrochloride

5-HT6 receptor, sequence (P50406 whole entry): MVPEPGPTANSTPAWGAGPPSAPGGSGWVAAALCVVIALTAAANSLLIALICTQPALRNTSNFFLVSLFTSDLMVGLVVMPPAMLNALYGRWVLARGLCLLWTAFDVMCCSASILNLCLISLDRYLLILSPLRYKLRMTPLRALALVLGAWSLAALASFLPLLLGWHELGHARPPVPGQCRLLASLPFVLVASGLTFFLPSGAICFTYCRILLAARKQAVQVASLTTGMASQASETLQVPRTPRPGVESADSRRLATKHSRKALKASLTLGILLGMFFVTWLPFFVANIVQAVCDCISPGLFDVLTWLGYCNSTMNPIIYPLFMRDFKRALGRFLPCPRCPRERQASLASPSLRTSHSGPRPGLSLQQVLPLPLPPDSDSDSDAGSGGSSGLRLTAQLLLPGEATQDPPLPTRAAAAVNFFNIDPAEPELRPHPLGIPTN
H1, sequence (P35367 whole entry): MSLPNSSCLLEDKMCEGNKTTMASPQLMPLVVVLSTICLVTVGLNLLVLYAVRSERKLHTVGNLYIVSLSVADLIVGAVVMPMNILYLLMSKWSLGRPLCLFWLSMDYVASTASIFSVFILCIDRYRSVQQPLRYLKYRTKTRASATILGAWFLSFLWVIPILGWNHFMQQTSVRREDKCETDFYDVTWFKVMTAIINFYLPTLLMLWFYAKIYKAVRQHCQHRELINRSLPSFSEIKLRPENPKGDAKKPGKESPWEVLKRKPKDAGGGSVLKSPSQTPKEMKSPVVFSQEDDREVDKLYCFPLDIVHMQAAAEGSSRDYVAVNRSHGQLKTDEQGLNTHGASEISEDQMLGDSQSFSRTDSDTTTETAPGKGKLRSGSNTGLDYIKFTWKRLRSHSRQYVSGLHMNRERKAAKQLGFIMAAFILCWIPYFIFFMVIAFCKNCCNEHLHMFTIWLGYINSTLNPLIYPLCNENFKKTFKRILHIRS
D1, sequence (P21728 whole entry): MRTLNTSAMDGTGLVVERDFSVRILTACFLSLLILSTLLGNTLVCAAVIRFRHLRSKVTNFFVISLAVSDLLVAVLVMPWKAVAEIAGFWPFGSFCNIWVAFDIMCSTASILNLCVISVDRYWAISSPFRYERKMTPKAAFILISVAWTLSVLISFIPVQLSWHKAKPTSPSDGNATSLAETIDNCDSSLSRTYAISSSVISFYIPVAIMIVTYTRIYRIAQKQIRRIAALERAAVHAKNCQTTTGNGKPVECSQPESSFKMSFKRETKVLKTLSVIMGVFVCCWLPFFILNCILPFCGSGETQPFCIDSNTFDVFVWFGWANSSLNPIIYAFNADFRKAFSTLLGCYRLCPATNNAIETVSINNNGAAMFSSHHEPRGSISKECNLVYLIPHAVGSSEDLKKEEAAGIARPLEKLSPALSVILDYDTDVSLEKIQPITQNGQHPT
5HT2A, sequence (P28223 whole entry, species assumed): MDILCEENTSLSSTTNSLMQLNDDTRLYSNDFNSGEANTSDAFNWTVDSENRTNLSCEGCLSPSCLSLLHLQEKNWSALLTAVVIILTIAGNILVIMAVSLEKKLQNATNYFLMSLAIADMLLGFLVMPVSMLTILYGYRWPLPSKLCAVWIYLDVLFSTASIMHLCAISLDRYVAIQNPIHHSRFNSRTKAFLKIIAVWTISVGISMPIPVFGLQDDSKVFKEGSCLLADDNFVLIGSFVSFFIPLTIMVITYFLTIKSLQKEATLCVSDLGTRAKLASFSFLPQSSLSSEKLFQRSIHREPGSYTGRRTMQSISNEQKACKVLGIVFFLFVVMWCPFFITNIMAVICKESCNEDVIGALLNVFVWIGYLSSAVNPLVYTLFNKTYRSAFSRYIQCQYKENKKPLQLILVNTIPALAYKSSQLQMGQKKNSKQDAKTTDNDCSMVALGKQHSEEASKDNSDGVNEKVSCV
D3, sequence (P35462 whole entry): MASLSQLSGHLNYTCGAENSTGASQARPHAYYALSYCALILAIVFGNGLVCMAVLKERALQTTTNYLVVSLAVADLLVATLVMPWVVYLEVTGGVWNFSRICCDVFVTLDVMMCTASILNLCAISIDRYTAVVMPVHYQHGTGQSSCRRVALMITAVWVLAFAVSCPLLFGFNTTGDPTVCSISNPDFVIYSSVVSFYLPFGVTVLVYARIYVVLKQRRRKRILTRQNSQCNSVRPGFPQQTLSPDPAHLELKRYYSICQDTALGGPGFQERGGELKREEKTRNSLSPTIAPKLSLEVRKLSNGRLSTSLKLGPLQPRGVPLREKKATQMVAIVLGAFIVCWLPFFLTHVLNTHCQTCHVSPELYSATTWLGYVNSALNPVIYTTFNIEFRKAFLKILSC
D2, sequence (P14416 whole entry): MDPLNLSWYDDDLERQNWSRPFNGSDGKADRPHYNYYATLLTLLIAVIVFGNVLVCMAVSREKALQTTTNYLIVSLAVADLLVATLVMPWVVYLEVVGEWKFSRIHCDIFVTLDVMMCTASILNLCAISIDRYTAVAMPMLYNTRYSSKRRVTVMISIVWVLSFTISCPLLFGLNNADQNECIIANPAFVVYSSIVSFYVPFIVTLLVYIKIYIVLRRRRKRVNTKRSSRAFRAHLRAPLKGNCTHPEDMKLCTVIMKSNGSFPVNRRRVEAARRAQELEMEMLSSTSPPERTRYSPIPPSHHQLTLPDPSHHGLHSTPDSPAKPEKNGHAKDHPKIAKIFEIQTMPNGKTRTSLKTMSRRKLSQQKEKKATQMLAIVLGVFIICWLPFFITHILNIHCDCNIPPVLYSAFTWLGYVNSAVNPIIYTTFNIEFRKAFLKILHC

Compound: COc1cc(Cl)cc(C(C)Nc2cc(N3CCNCC3)ccc2S(C)(=O)=O)c1OC (single isomer, unassigned; (+)) [(+) isomer, [1-(5-Chloro-2,3-dimethoxy-phenyl)-ethyl]-(2-methanesulfonyl-5-piperazin-1-yl-phenyl)-amine hydrochloride]
Ki (5-HT6 receptor; read-out: 5-HT6 Ki): 18 nM

Compound: COc1cc(Cl)cc(C(C)Nc2cc(N3CCNCC3)ccc2S(C)(=O)=O)c1OC (single isomer, unassigned; (-)) [(−) isomer, [1-(5-Chloro-2,3-dimethoxy-phenyl)-ethyl]-(2-methanesulfonyl-5-piperazin-1-yl-phenyl)-amine hydrochloride]
Ki (5-HT6 receptor; 5-HT6 Ki): 4.5 nM

Ki (5-HT6 receptor; read-out: 5-HT6 Ki): 47 nM
Compound: CC(Nc1cc(N2CCNCC2)ccc1S(C)(=O)=O)c1ccccc1 (stereo not shown) [Compound B, 2-(Methylsulfonyl)-N-(1-phenylethyl)-5-(piperazin-1-yl)benzenamine hydrochloride]

Ki (5-HT6 receptor; read-out: 5-HT6 Ki): 34 nM
Compound: COc1cc(OC)cc(C(C)Nc2cc(N3CCNCC3)ccc2C(=O)C(F)(F)F)c1 (stereo not shown) [Compound C, 1-(2-(1-(3,5-Dimethoxyphenyl)ethylamino)-4-(piperazin-1-yl)phenyl)-2,2,2-trifluoroethanone hydrochloride]

Ki (5-HT6 receptor; read-out: 5-HT6 Ki): 27 nM
Compound: COc1cc(OC)cc(C(C)Nc2cc(N3CCNCC3)ccc2S(C)(=O)=O)c1.Cl (stereo not shown) [Compound D, N-(1-(3,5-Dimethoxyphenyl)ethyl-2-(methylsulfonyl)-5-(piperazin-1-yl)-benzeneamine hydrochloride]

Compound: COc1cc(OC)cc(C(C)Nc2cc(N3CCNCC3)ccc2S(C)(=O)=O)c1.Cl (stereo not shown) [Compound D]
body weight [1]: significant decrease
food intake [1]: significant decrease
plasma level of Insulin [1]: reduction
plasma level of Leptin [1]: reduction
plasma level of NEFA [1]: reduction
plasma level of triglycerides [1]: reduction

Compound: CC(Nc1cc(N2CCNCC2)ccc1S(C)(=O)=O)c1cc(Cl)cc2c1OCCO2 (stereo not shown) [Cpd. E, N-(1-(6-Chloro-2,3-dihydrobenzo[b][1,4]dioxin-8-yl)ethyl)-2-(methylsulfonyl)-5-(piperazin-1-yl)benzenamine hydrochloride]
Ki (5HT1A): 100 to 1000 nM
IC50 (D2): 613 nM
Ki (5HT2A): 150 nM
IC50 (M1; * = Estimated IC50): 10000 nM
IC50 (α2; [3]): 30000 nM
Ki (D3): 2.8 nM
Ki (D1): 100 to 1000 nM
IC50 (α1; [3]): 24000 nM
Ki (D4): 100 to 1000 nM
Ki (5-HT6 receptor; binding profile table, read-out: 5HT6 Ki): 1.3 nM
IC50 (H1): 20000 nM
Ki (5HT2C): 12 nM

Compound: COc1ccc(C2CNC(=O)C2)cc1OC1CCCC1 (stereo not shown) [Rolipram, reference compound]
Exploration time, Diff of Means Novel vs. Familiar ([2]; 0.1 mg/kg): 29.803
time exploring novel object versus familiar object ([2]; 0.1 mg/kg): spent more time exploring novel object than the familiar object
effect on recognition index / object recognition compared to vehicle [2]: significant, positive effect on object recognition
effect on recognition index / object recognition compared to vehicle ([2]; listed as rolipram): significantly increased the recognition index
Memory index, Mean ([2]; 0.1 mg/kg, 10 min test): 71.670
Exploration time, Mean ([2]; 0.1 mg/kg, Familiar Object): 19.172
Exploration time, Mean ([2]; 0.1 mg/kg, Novel Object): 48.975
Exploration time, Diff of Means 10% DMSO vs. treatment ([2]; within Familiar, 0.1 mg/kg): 4.807
Exploration time, Diff of Means treatment vs. 10% DMSO ([2]; within Novel, 0.1 mg/kg): 17.991

Ki (5HT1A): < 10 nM
Ki (M1; read-out: M1 binding class): < 10 nM
Ki (α2; read-out: α2 binding class): 100 to 1000 nM
Ki (α1; read-out: α1 binding class): 100 to 1000 nM
Ki (5-HT6 receptor; read-out: 5HT6 binding class): 11 to 100 nM
Compound: O=C1Cc2cc(CCN3CCN(c4nsc5ccccc45)CC3)c(Cl)cc2N1 [Ziprasidome, reference compound]
